Experimental data taken from ChEMBL document CHEMBL3585293, “Design, antiviral and cytostatic properties of isoxazolidine-containing amonafide analogues” (Bioorg Med Chem, 2015).

Tested on: Vaccinia virus
Assay: Antiviral activity against Vaccinia virus infected in HEL cells assessed as reduction of virus-induced cytopathogenicity
Type: functional, organism-based
Settings: Orthopoxvirus vaccinia

Row | Structure (SMILES) | EC50
1 | Nc1ccn(C[C@@H](CO)OCP(=O)(O)O)c(=O)n1 [CIDOFOVIR] | 22 µM
2 | Nc1nc2c(ncn2COC(CO)CO)c(=O)[nH]1 [GANCICLOVIR] | > 100 µM
3 | CCOP(=O)(OCC)[C@@H]1C[C@H](C(=O)Nc2cc3c4c(cccc4c2)C(=O)N(CCN2CCCC2)C3=O)ON1C (racemic) | 50 µM
4 | CCOP(=O)(OCC)[C@@H]1C[C@H](C(=O)Nc2cc3c4c(cccc4c2)C(=O)N(CCN(C)C)C3=O)ON1C (racemic) | > 45 µM
5 | Nc1nc2c(ncn2COCCO)c(=O)[nH]1 [ACYCLOVIR] | > 250 µM
6 | CCOP(=O)(OCC)[C@@H]1C[C@@H](C(=O)Nc2cc3c4c(cccc4c2)C(=O)N(CCN(C)C)C3=O)ON1C (racemic) | > 45 µM
7 | O=c1[nH]c(=O)n([C@H]2C[C@H](O)[C@@H](CO)O2)cc1/C=C/Br [BRIVUDINE] | 17 µM
8 | CCOP(=O)(OCC)[C@@H]1C[C@@H](C(=O)Nc2cc3c4c(cccc4c2)C(=O)N(CCN2CCCC2)C3=O)ON1C (relative stereo) | > 45 µM
